Legend:
Laodel phax striatellus = test: Control effect against Laodel phax striatellus (rice seedling spray); assay type: in vivo; settings: Concentration 500 ppm; method of Test Example 5
Source text: Control Effect Against Laodel phax striatellus
Test compounds, which had been diluted to designated concentrations by the addition of a 50% aqueous acetone solution (Tween 20, 0.05%), were spread over four rice seedlings (7 days after sowing) sowed in a plastic pot by means of a spray gun, followed by air drying. Thereafter, this pot was covered by a plastic cylinder, and ten larvae at the second instar of Laodel phax striatellus were released in the pot. The pot was then lidded, and the larvae were reared in a chamber at a constant temperature (25° C.).

Myzus persicae = test: Pesticidal effect against Myzus persicae (cabbage leaf disk spray); assay type: in vivo; settings: Concentration 500 ppm; method of Test Example 3
Source text: Pesticidal Effect Against Myzus persicae
(§1) A cabbage leaf disk having a diameter of 2.8 cm was placed in a plastic schale. Test compounds, which had been diluted to designated concentrations by the addition of a 50% aqueous acetone solution (Tween 20, 0.05%), were spread over the cabbage leaf disk by means of a spray gun, and the cabbage leaf disk was then air dried. Thereafter, ten larvae at the first instar of Myzus persicae were released in the schale. The schale was then lidded, and the larvae were reared in a chamber at a constant temperature (25° C.).

Tetranychus cinnabarinus = test: Miticidal effect against Tetranychus cinnabarinus (kidney leaf disk, eggs/larvae/nymphs); assay type: in vivo; settings: Concentration 500 ppm; method of Test Example 4
Procedure: Miticidal Effect Against Tetranychus cinnabarinus
A kidney leaf disk having a diameter of 2 cm was placed on agar. Seven female adult mites of Tetranychus cinnabarinus were released on the kidney leaf disk. The female adult mites were allowed to oviposit in a chamber kept at a constant temperature (25° C.) for 24 hr. The female adult mites were then removed from the kidney leaf disk. Test compounds, which had been diluted to designated concentrations by the addition of a 50% aqueous acetone solution (Tween 20, 0.05%), were spread over the leaf disk by means of a spray gun, and the leaf disk was then air dried. Thereafter, the leaf disk was stored in a constant-temperature chamber of 25° C. […] The sum of the unhatching rate of eggs and the death rate of larva ticks/nymphs was determined as the total death rate.

Plutella xylostella = test: Pesticidal effect against Plutella xylostella (cabbage leaf disk spray); assay type: in vivo; settings: Concentration 200 ppm; method of Test Example 1
Source text: Pesticidal Effect Against Plutella xylostella
as §1, with “5” for “2.8”, “cup.” for “schale.”, “Five” for “Thereafter, ten”, “second” for “first”, “Plutella xylostella” for “Myzus persicae”, “cup” for “schale”

Spodoptera litura = test: Pesticidal effect against Spodoptera litura (cabbage leaf disk spray); assay type: in vivo; settings: Concentration 200 ppm; method of Test Example 2
Source text: Pesticidal Effect Against Spodoptera litura
as §1, with “5” for “2.8”, “cup.” for “schale.”, “Five” for “Thereafter, ten”, “third” for “first”, “Spodoptera litura” for “Myzus persicae”, “cup” for “schale”

Compound | Death rate, % Laodelphax striatellus (Laodel phax striatellus) [%] | Death rate, % Myzus persicae (Myzus persicae) [%] | Death rate, % Tetranychus cinnabarinus (Tetranychus cinnabarinus) [%] | Death rate, % Plutella xylostella (Plutella xylostella) [%] | Death rate, % Spodoptera litura (Spodoptera litura) [%] | melting point [°C]
COc1ccc2nc(C)c(C)c(OC(C)=O)c2c1 [JP 2633377 Compund No. 46] | 0 | 0 | 0 | 0 | 10 | 
CC(=O)Oc1c(C)c(C)nc2cc(Cl)c(Oc3ccc(Cl)cc3)cc12 [Compound No. 22, 4-acetoxy-7-chloro-6-(4-chlorophenoxy)-2,3-dimethyl-quinoline] |  |  |  |  |  | 160 to 162
CC(=O)Oc1c(C)c(C)nc2ccc(Oc3ccccc3)cc12 [WO 98055460 Compund No. 136] | 0 | 0 | 0 | 0 | 0 | 
CC(=O)Oc1c(C)c(C)nc2ccc(Oc3ccc(Cl)cc3)c(Cl)c12 [Compound No. 2, 4-Acetoxy-5-chloro-6-(4-chlorophenoxy)-2,3-dimethyl-quinoline] |  |  |  |  |  | 167 to 169

Source: patent US7880006B2, “Quinoline derivatives and insecticide comprising thereof as active ingredient” (Meiji Seika Kaisha, Ltd., priority 2004, dated 2011)
